Experimental data as given in the NIST ThermoML archive (doi:10.1016/j.fluid.2013.03.001).

Legend:
[1] = molar heat capacity at constant pressure; details: 101.33 kPa, Liquid, Small sample (50 mg) DSC
[2] = 101.33 kPa, Liquid; for viscosity: Concentric cylinders viscometry; for mass density: Vibrating tube method

CCCCn1cc[n+](C)c1.[Cl][Fe-]([Cl])([Cl])[Cl] [1-butyl-3-methylimidazolium tetrachloroferrate]
Details	mass density [kg/m3]	molar heat capacity at constant pressure [J/K/mol]	viscosity [mPa·s]
[1], 308.16 K	–	436.39	–
[1], 313.16 K	–	446.09	–
[1], 318.16 K	–	446.39	–
[1], 323.16 K	–	447.13	–
[1], 328.22 K	–	449.63	–
[1], 333.22 K	–	451.03	–
[1], 338.19 K	–	452.53	–
[1], 343.18 K	–	456.2	–
[1], 348.25 K	–	457.4	–
[1], 353.18 K	–	457.95	–
[1], 358.25 K	–	459.31	–
[1], 363.18 K	–	460.92	–
[1], 368.17 K	–	461.57	–
[1], 373.21 K	–	462.88	–
[1], 378.2 K	–	463.64	–
[1], 383.17 K	–	465.82	–
[1], 388.2 K	–	465.66	–
[1], 393.17 K	–	466.11	–
[1], 398.2 K	–	467.83	–
[1], 403.2 K	–	469.12	–
[1], 408.16 K	–	469.7	–
[1], 413.19 K	–	469.42	–
[1], 418.19 K	–	471.44	–
[1], 423.22 K	–	470.84	–
[2], 278.15 K	–	–	103.3
[2], 283.15 K	–	–	79.5
[2], 288.15 K	–	–	62.6
[2], 293.15 K	1370	–	50.2
[2], 294.15 K	1369.2	–	–
[2], 295.15 K	1368.3	–	–
[2], 296.15 K	1367.5	–	–
[2], 297.15 K	1366.7	–	–
[2], 298.15 K	1365.8	–	41
[2], 299.15 K	1365	–	–
[2], 300.15 K	1364.2	–	–
[2], 301.15 K	1363.3	–	–
[2], 302.15 K	1362.5	–	–
[2], 303.15 K	1361.7	–	33.9
[2], 304.15 K	1360.9	–	–
[2], 305.15 K	1360.1	–	–
[2], 306.15 K	1359.2	–	–
[2], 307.15 K	1358.4	–	–
[2], 308.15 K	1357.6	–	28.5
[2], 309.15 K	1356.8	–	–
[2], 310.15 K	1356	–	–
[2], 311.15 K	1355.1	–	–
[2], 312.15 K	1354.3	–	–
[2], 313.15 K	1353.5	–	24.2
[2], 314.15 K	1352.7	–	–
[2], 315.15 K	1351.9	–	–
[2], 316.15 K	1351.1	–	–
[2], 317.15 K	1350.3	–	–
[2], 318.15 K	1349.5	–	20.8
[2], 319.15 K	1348.7	–	–
[2], 320.15 K	1347.8	–	–
[2], 321.15 K	1347	–	–
[2], 322.15 K	1346.2	–	–
[2], 323.15 K	1345.4	–	18.1
[2], 324.15 K	1344.6	–	–
[2], 325.15 K	1343.8	–	–
[2], 326.15 K	1343	–	–
[2], 327.15 K	1342.2	–	–
[2], 328.15 K	1341.4	–	15.8
[2], 329.15 K	1340.6	–	–
[2], 330.15 K	1339.8	–	–
[2], 331.15 K	1339	–	–
[2], 332.15 K	1338.2	–	–
[2], 333.15 K	1337.4	–	13.9
[2], 334.15 K	1336.6	–	–
[2], 335.15 K	1335.9	–	–
[2], 336.15 K	1335.1	–	–
[2], 337.15 K	1334.3	–	–
[2], 338.15 K	1333.5	–	12.4
[2], 339.15 K	1332.7	–	–
[2], 340.15 K	1331.9	–	–
[2], 341.15 K	1331.1	–	–
[2], 342.15 K	1330.3	–	–
[2], 343.15 K	1329.5	–	11.1
[2], 344.15 K	1328.7	–	–
[2], 345.15 K	1328	–	–
[2], 346.15 K	1327.2	–	–
[2], 347.15 K	1326.4	–	–
[2], 348.15 K	1325.6	–	10
[2], 349.15 K	1324.8	–	–
[2], 350.15 K	1324	–	–
[2], 351.15 K	1323.3	–	–
[2], 352.15 K	1322.5	–	–
[2], 353.15 K	1321.7	–	9
[2], 354.15 K	1320.9	–	–
[2], 355.15 K	1320.1	–	–
[2], 356.15 K	1319.4	–	–
[2], 357.15 K	1318.6	–	–
[2], 358.15 K	1317.8	–	8.2
[2], 359.15 K	1317	–	–
[2], 360.15 K	1316.3	–	–
[2], 361.15 K	1315.5	–	–
[2], 362.15 K	1314.7	–	–
[2], 363.15 K	1313.9	–	7.5
[2], 368.15 K	–	–	6.9
[2], 373.15 K	–	–	6.3
